Measurements from patent publication US9974782B2, “Phosphodiesterase inhibitors and uses thereof” (THE TRUSTEES OF COLUMBIA UNIVERSITY IN THE CITY OF NEW YORK, priority 2008, dated 2018).

What was measured:
[1] = Pharmacokinetics testing, plasma and brain (LC-MS/MS)
Protocol: The pharmacokinetic studies were conducted in male BABL/c mice. The blood and brain samples were collected at predetermined times from three mice per time point. […] An LC-MS/MS method was developed to determine these compounds in plasma and brain samples.
Quantification was achieved by the internal standard method using peak area ratios of the analysis to the internal standard in plasma and brain. Concentrations were calculated using a weighted least-squares linear regression (W=1/×2). The major pharmacokinetic parameters were calculated and the brain-to-plasma distribution ratios were estimated.
The PDE5 inhibitor was prepared by dissolving the test article in 0.5% methyl cellulose to yield final concentrations at 5 mg/mL for PO administration.
Mice were sacrificed by cervical dislocation after blood harvest. The plasma were separated via centrifugation (4° C., 3500 rpm, 10 min) and stored in −80° C. before analysis.
Frozen unknown plasma samples were thawed at room temperature and vortexed thoroughly. With a pipette, 25 μL of plasma was transferred into a 1.5 mL Eppendorf tube. To each sample, 25 μL of methanol and 25 μL of the internal standard were added, followed by the addition of 100-μL methanol. The sample mixture was vortexed for approximately 1 min. After centrifugation at 11000 g for 5 min, the upper organic layer was transferred to a glass tube and evaporated at 40° C. under a gentle stream of nitrogen. Residues were dissolved in 150 μL of the mobile phase, and mixed in a vortex mixer. A 20-μL aliquot of the resulting solution was injected onto the LC/MS/MS system for analysis.
Brains were collected immediately after mice death. The brains were excised, weighed, and rinsed by cold saline and then frozen at −80° C. until further process for LC/MS/MS analysis.
On the day of the assay, the frozen tissue samples were thawed unassisted at room temperature. When completely thawed, each tissue sample of 200 mg was weighed and placed into a plastic tube. Methanol (1.0 mL) was added to facilitate homogenization, which was conducted using a Fluko F6/10 superfine homogenizer for approximately 1 min. Then, the homogenized samples were vortexed for 1 min. A 25-μL aliquot of the homogenized samples was transferred into an Eppendorf tube. To each sample, 25 μL of methanol and 25 μL of the internal standard were added. The sample mixture centrifuged at 11000 g for 5 min. A 20-μL aliquot of the supernatants was diluted to 80 μL or 60 μL with the mobile phase and a 10-μL aliquot was injected onto the LC/MS/MS system for analysis.
We then investigated the PK and BBB penetration capability of YF012403. After p.o. administration at 50 mg/kg to BABL/c mice, plasma and brain concentrations were determined by the LC-MS/MS.

APP/PS1 mice = assay: Contextual and cued fear conditioning; format: in vivo, mouse; settings: for effect on contextual fear memory in words: APP/PS1 (transgenic) mice
Protocol: Given that sildenafil reversed LTP deficits in 3-month-old APP/PS1, it was then tested whether the inhibitor reversed the cognitive defects in these animals. As reported above sildenafil offers the advantage of crossing the BBB and therefore it can be easily utilized in behavioural experiments. Three-month-old mice were divided into 4 groups: APP/PS1 with sildenafil, APP/PS1 with vehicle, WT with sildenafil and WT with vehicle. Sildenafil and vehicle control solutions were administered i.p. at a concentration of 3 mg/kg. This concentration was chosen based on previous studies showing that these amounts of sildenafil raise hippocampal cGMP levels and improve memory in aged rats^A6 and mice^A7 independent of vascular effects^A6. The effects of acute administration of sildenafil was first examined on fear-conditioning learning, a type of learning that is impaired in several AD mouse models^A14 and depends on hippocampus and amygdala. The hippocampus is indispensable for contextual fear conditioning^A15, a form of associative learning in which mice must associate a neutral stimulus with an aversive one. Mice were trained to associate neutral stimuli with an aversive one. They were placed in a new context (fear conditioning box), exposed to a white noise cue (CS) paired with a mild foot shock (US), and injected with sildenafil immediately after the training. Fear learning was assessed twenty-four hours later by measuring freezing behaviour—the absence of all movement except for that necessitated by breathing—in response to representation of the context or of the auditory cue within a completely different context. No difference was found in the freezing behaviour among the four groups of mice before the training phase (FIG. 2A). Twenty-four hours later, a decrease in the freezing behaviour of vehicle-treated APP/PS1 mice compared with that of vehicle-treated WT littermates in the analysis of the contextual learning was observed (FIG. 2A). […] Fear conditioning, a hippocampus-independent task A^15, was next tested and no difference in freezing among the 4 groups was found, as APP/PS1 mice are known to have a selective hippocampus-dependent impairment in associative learning^A14.
Sildenafil was tested to determine whether a brief course of treatment can provide long term benefits. The PDE5 inhibitor was examined to see if it maintains its protective effect against synaptic dysfunction and memory loss. In these experiments, both APP/PS1 and WT mice of 3 months of age were injected intraperitoneally with 3 mg/kg/day sildenafil for 3 weeks, then the treatment was stopped for 9-12 weeks prior to testing. The mice were next subjected to training for contextual learning. […] There were no differences between the 4 groups in the cued conditioning test.
Three-month-old APP/PS1 and WT mice were separated into 4 groups: APP/PS1 mice treated with vehicle, APP/PS1 mice treated with PDE inhibitor, WT mice treated with vehicle, and WT mice treated with PDE inhibitor. […] In the remaining experiments, sildenafil was injected via i.p. The drug was administered either acutely or for 1 course of 3 week treatment. For assessment of the short-term effects of sildenafil, the drug was given at a concentration of 3 mg/kg immediately after the training. This dose yields concentrations of ˜2.5 μM cGMP in the hippocampus^A53. For assessment of long-term effects, sildenafil was given daily by i.p. injection at a concentration of 3 mg/kg for 3 weeks and then treatment was stopped for 9-12 weeks prior to behavioral testing. Contextual and cued fear conditioning was performed for 3 days. Radial-arm water-maze (RAWM) was performed for 3 weeks. Then, the animals were sacrificed for electrophysiological recordings. To decide the time of administration of sildenafil in the acute experiments, a series of studies was performed in which the inhibitor was injected i.p. at 5 min before the electric shock or at 5 min before the first acquisition trial with the radial arm water maze. […]

[2] = male, BABL/c, mouse, in vivo, po, 50 mg/kg, half-life in the brain
[3] = male, BABL/c, mouse, in vivo, po, 50 mg/kg, half-life in the plasma
[4] = 3 month-old WT, sildenafil 3 mg/Kg or tadalafil 1 mg/Kg i.p.
[5] = APP/PS1, 3 mg/Kg i.p. for 3 weeks at 3 months, tested 9-12 weeks later
[6] = WT, 3 mg/Kg i.p. for 3 weeks at 3 months, tested 9-12 weeks later

Row | Structure (SMILES) | Kp ([1]; male, BABL/c, mouse, brain, oral, 50 mg/kg) | Cmax ([1]; male, BABL/c, mouse, in vivo, po, 50 mg/kg) | half-life [1, 2] | half-life [1, 3] | log BB ([1]; mouse, in vivo) | time of peak plasma concentration after dosing ([1]; p.o., 50 mg/kg, BABL/c mice) | effect on contextual fear memory in words (APP/PS1 mice) | minimum time needed for a positive effect on contextual fear memory (APP/PS1 mice; 3 mg/kg, treated at 3 months, tested at 6-8 months) | minimum concentration needed to improve contextual fear memory (APP/PS1 mice; 3-month-old APP/PS1, acute) | contextual freezing time as % of vehicle-treated WT mice (APP/PS1 mice; 3 month-old APP/PS1, sildenafil 3 mg/Kg i.p. after training, 24 hrs) | contextual freezing time (APP/PS1 mice; 3 month-old APP/PS1, sildenafil 3 mg/Kg or tadalafil 1 mg/Kg i.p., 24 hrs after training) | contextual freezing as % of vehicle-treated WT mice (APP/PS1 mice; [4]) | contextual freezing time (APP/PS1 mice; [4]) | effect on cued conditioning in words (APP/PS1 mice; 3 months old APP/PS1 and WT, 3 mg/kg) | contextual freezing as % of vehicle-treated WT mice (APP/PS1 mice; [5]) | contextual freezing time (APP/PS1 mice; [5]) | freezing time as % of vehicle-treated APP/PS1 mice (APP/PS1 mice; APP/PS1, injected i.p. 5 min before the electric shock) | contextual freezing as % of vehicle-treated WT mice (APP/PS1 mice; [6]) | contextual freezing time (APP/PS1 mice; [6]) | minimum concentration needed to improve contextual fear memory (APP/PS1 mice; treated at 3 months, tested at 6-8 months)
1 | COc1ccc(CNc2c(CO)cnc3c(C4CC4)cc(C#N)cc23)cc1Cl [YF012403, 4-(3-chloro-4-methoxybenzylamino)-8-cyclopropyl-3-(hydroxymethyl)-quinoline-6-carbonitrile] | 0.41 | 385 ng/g | 1.04 h | 1.33 h | −0.38 | 0.5 h | attenuated | – | – | – | – | – | – | – | – | – | – | – | – | –
2 | CCCc1nn(C)c2c(=O)[nH]c(-c3cc(S(=O)(=O)N4CCN(C)CC4)ccc3OCC)nc12 [sildenafil, 5-[2-ethoxy-5-(4-methyl-1-piperazinylsulphonyl)phenyl]-1-methyl-3-n-propyl-1,6-dihydro-7H-pyrazolo[4,3-d]pyrimidin-7-one] | – | – | 0.84 h | 1.21 h | – | – | complete | 2 weeks | 3 mg/kg | about 87% | 28.95±3.94% | about 89% | 30.1±3.11% | do not affect freezing during cued conditioning | ~97% | 30.32±1.98% | ~90% | ~104% | 32.41±1.88% | 3 mg/kg
